Values quoted from earlier work, collected in patent publication US20250134883A1, “NOVEL COMPOSITIONS” (TULEX PHARMACEUTICALS INC., priority 2022, published 2025).

Settings: high dose naltrexone (0.5, 1.0 and 2.0 mg/kg)

O=C1CC[C@@]2(O)[C@H]3Cc4ccc(O)c5c4[C@@]2(CCN3CC2CC2)[C@H]1O5 [naltrexone, Naltrexone]
effect on autistic behavior and gaze aversion: reverse autistic behavior and gaze aversion
